Tests used:
[1] = tested on: Shaker IR; assay: Two-electrode voltage clamp, Shaker IR; format: cell-based, Drosophila melanogaster; details: control toxin, 2.5 μM; Xenopus laevis oocytes, ND96, two-electrode voltage clamp
[2] = tested on: vertebrate and invertebrate cells; details: component of Apis mellifera venom; cited from earlier work
Description: Ant venom peptides have previously been classified based on their structure into three main groups: linear, dimeric or inhibitor cystine knot (ICK)-like peptides [for a review, see [2]]. An alternative approach for classification follows their biological activity, with two main characteristics: cytolytic or neurotoxic. […] Such a phenomenon is indicative of cytolysis or cytotoxicity and may be explained by pore formation. […] In non-injected control oocytes, the current ...

[3] = tested on: voltage-gated sodium (Nav) channels; details: vertebrates and invertebrates; blocks synaptic transmission in insect CNS; cited from earlier work
Description: Ant venom peptides have previously been classified based on their structure into three main groups: linear, dimeric or inhibitor cystine knot (ICK)-like peptides [for a review, see [2]]. An alternative approach for classification follows their biological activity, with two main characteristics: cytolytic or neurotoxic. […] They often act as amphipathic, helical structures forming pores through biological membranes, disturbing t ...

## charybdotoxin
[1]
  block of Shaker IR currents: clear block

## melittin
[2]
  cytolysis via pore formation: cytolysis via a process of pore formation

## poneratoxin
[3]
  modulation of Nav channels: modulate voltage-gated sodium (Nav) channels of both vertebrates and invertebrates

From publication PMC11123039, “The Helix Ring Peptide U11 from the Venom of the Ant, Tetramorium bicarinatum, Acts as a Putative Pore-Forming Toxin” (Membranes, 2024)
